How the values were obtained:
[1] = tested on: Rattus norvegicus
[2] = tested on: Canidae; settings: Dog Other; for NOAEL: body weight
[3] = subchronic, duration: 90 days, oral, diet, M/F, Sprague-Dawley, no effects
[4] = subchronic, duration: 42 days, oral, gavage, M/F, body weight

## CC(=O)NCCS(=O)(=O)O.CC(=O)NCCS(=O)(=O)O.[Mg]
[1]; subchronic, duration: 13 weeks, oral, gavage, M/F, Crj:CD, no effects
  NOAEL: 1000 mg/kg-day

## Cc1nc2cccc(OCC(C)(C)C(=O)NC(C)C)c2c(N)c1C(=O)O
[1]; reproduction developmental, oral, gavage, F, Crj:CD, no effects
  NOAEL: 1000 mg/kg-day
[1]; subchronic, duration: 13 weeks, oral, diet, M/F, Crj:CD, no effects
  NOAEL: 100 mg/kg-day

## Cc1sc2nc(=O)[nH]c(N)c2c1C.Cl
[1]; subchronic, duration: 13 weeks, oral, diet, M/F, Sprague-Dawley, no effects
  NOAEL: 60 mg/kg-day

## Cc1cc(OC2OC(CO)C(O)C(O)C2O)ccc1C(=O)C(C)(C)NC(=O)c1sccc1C (stereo not given)
[2]; chronic, duration: 1 years
  NOAEL: 1.57 mg/kg-day
[2]; subchronic, duration: 90 days, oral
  NOAEL: 5.34 mg/kg-day

## COc1cc(S(=O)(=O)[O-])c(C)cc1N=Nc1c(O)ccc2cc(S(=O)(=O)[O-])ccc12.[Na+].[Na+]
[1]; chronic, oral, M/F, body weight
  NOAEL: 701 mg/kg-day
[1]; developmental, M, development
  NOAEL: 701 mg/kg-day
[1]; reproduction developmental, growth
  NOAEL: 695 mg/kg-day
[1]; reproduction developmental, oral, M/F, growth
  NOAEL: 695 mg/kg-day

## CC1OCCC12SC1CCOC1(C)S2 (stereo not given)
[1]; subchronic, duration: 90 days, oral, diet, M, hematological
  NOAEL: 25 mg/kg-day

## C[n+]1cccc(C(=N)[O-])c1.Cl
[1]; chronic, duration: 91 days, oral, gavage, M/F, clinical chemistry
  NOAEL: 250 mg/kg-day

## NC(=O)Cc1cccc2ccccc12 [1-Naphthaleneacetamide]
[1]; developmental, development
  NOAEL: 15 mg/kg-day
[1]; subchronic, duration: 90 days, oral, hematological
  NOAEL: 10 mg/kg-day

## C=CCSCC=C [1-Propene, 3,3'-thiobis-]
[1]; chronic, duration: 14 weeks, oral, gavage, M/F, Wistar, no effects
  NOAEL: 250 mg/kg-day

## CSCSCSC [2,4,6-Trithiaheptane]
[1]; [3]
  NOAEL: 0.2 mg/kg-day

## CC1(O)CSC(C)(O)CS1 (stereo not given) [2,5-Dimethyl-1,4-dithiane-2,5-diol]
[1]; [3]
  NOAEL: 3.14 mg/kg-day

## CC(=O)C1=NCCS1 [2-Acetyl-2-thiazoline]
[1]; subchronic, duration: 90 days
  NOAEL: 1.8 mg/kg-day
[1]; subchronic, duration: 90 days, oral, diet, M/F, no effects
  NOAEL: 1.8 mg/kg-day

## CCC(CC)C(=O)O [2-Ethylbutyric acid]
[1]; reproduction developmental, duration: 10 days, oral, gavage, F, Sprague-Dawley, no effects
  NOAEL: 200 mg/kg-day
[1]; reproduction developmental, duration: 10 days, oral, gavage, F, no effects
  NOAEL: 200 mg/kg-day

## CC(O)C(=O)NCCc1ccc(O)cc1 (stereo not given) [2-Hydroxy-N-[2-(4-hydroxyphenyl)ethyl]propanimidic acid]
[1]; subchronic, duration: 90 days, oral, M/F
  NOAEL: 8.4 mg/kg-day

## COc1ccccc1C=O [2-Methoxybenzaldehyde]
[1]; subchronic, duration: 49 days, oral, gavage, histopathology: nonneoplastic
  NOAEL: 10 mg/kg-day

## O=C1OC(=O)C2C3C=CC(C3)C12 (stereo not given) [2-Norbornene-5,6-dicarboxylic anhydride]
[1]; subchronic, duration: 90 days, oral, gavage, M/F, body weight
  NOAEL: 250 mg/kg-day

## C=CCCN=C=S [3-Butenyl isothiocyanate]
[1]; chronic, duration: 721 days, oral, gavage, M/F, histopathology: neoplastic
  NOAEL: 12 mg/kg-day

## CCOc1cc(C=O)ccc1O [3-Ethoxy-4-hydroxybenzaldehyde]
[1]; chronic, duration: 14 weeks
  NOAEL: 500 mg/kg-day

## C=CCc1cc(OC)c(O)c(OC)c1 [4-Allyl-2,6-dimethoxyphenol]
[1]; subchronic, duration: 90 days, clinical chemistry
  NOAEL: 300 mg/kg-day

## C=C(C)C1CC=C(CO)CC1 (stereo not given) [4-Isopropenylcyclohex-1-en-1-ylmethanol]
[2]; subchronic, duration: 90 days, no effects
  LEL: 120 mg/kg-day
[1]; subchronic, duration: 90 days, oral, gavage, F, no effects
  LEL: 120 mg/kg-day

## COc1ccc(C=O)cc1 [4-Methoxybenzaldehyde]
[1]; [4]
  NOAEL: 20 mg/kg-day

## COc1ccc(COC(C)=O)cc1 [4-Methoxybenzyl acetate]
[1]; [4]
  NOAEL: 20 mg/kg-day

## CCC(=O)CC(C)CC (stereo not given) [5-Methyl-3-heptanone]
[1]; subchronic, duration: 13 weeks, oral, gavage, M, Sprague-Dawley, behavior
  NOAEL: 82 mg/kg-day
[1]; subchronic, duration: 13 weeks, oral, gavage, M, Sprague-Dawley, clinical signs
  NOAEL: 82 mg/kg-day
[1]; subchronic, duration: 13 weeks, oral, gavage, M, behavior
  NOAEL: 82 mg/kg-day
[1]; subchronic, duration: 13 weeks, oral, gavage, M, neurology
  NOAEL: 82 mg/kg-day

## CC(=O)OC1(C)CCCC(C)(C)C12CCC(C)O2 (stereo not given) [6-Acetoxydihydrotheaspirane]
[1]; subchronic, duration: 90 days, oral, diet, M/F, Crj:CD, food efficiency
  NOAEL: 52 mg/kg-day

## CCCCCC1CC=CC(=O)O1 (stereo not given) [6-Pentyl-5,6-dihydro-2H-pyran-2-one]
[1]; subchronic, duration: 90 days
  NOAEL: 12.1 mg/kg-day

## CCC/C=C/C=O [(2E)-2-Hexenal]
[1]; subchronic, duration: 13 weeks, oral, diet, M/F, no effects
  NOAEL: 257 mg/kg-day

## C/C=C/C=C/C=O [(2E,4E)-2,4-Hexadienal]
[1]; chronic, duration: 14 weeks, oral, gavage, M/F, body weight
  NOAEL: 15 mg/kg-day

## CC(C)(C)c1ccc(CC#N)cc1 [(4-tert-Butylphenyl)acetonitrile]
[1]; short-term, duration: 28 days
  NOAEL: 6.5 mg/kg-day
